PubChem BioAssay AID2615 (Southern Research Specialized Biocontainment Screening …, 2010)

System: BSC cells SV40 infection, CPE inhibition
Assay: SV40 cytopathic effect inhibition and cytotoxicity, confirmation, SV40 T antigen inhibitor project, BSC cells (AID 2615)
Details: measured here: cytotoxicity in BSC cells

ClC(Cl)(c1nnnn1-c1ccccc1)c1nnnn1-c1ccccc1
TC50: 34 µM
